Laboratory results published in patent publication US9918963B2, “Therapeutic agent for disease based on inhibitory effect of macrophage migration inhibitory factor” (TOYAMA CHEMICAL CO., LTD., priority 2013, dated 2018).

What was measured:
MIF = molecular target: T1, MIF (Homo sapiens, UniProt P14174); assay: Confirmation of the binding of Compound A and MIF (compound beads pull-down from THP-1 cell lysate, Western blotting); conditions: elution with 0.5 mmol/L Compound A, anti-MIF Western blotting
T1 construct: (catalogue number not given); host or cells: E. coli BL21 Star (DE3)
T1 sequence (P14174 2-115 limits assumed): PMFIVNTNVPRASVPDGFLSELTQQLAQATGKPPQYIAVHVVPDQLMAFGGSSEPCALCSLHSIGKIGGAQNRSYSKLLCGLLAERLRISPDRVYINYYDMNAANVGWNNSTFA
Protocol: THP-1 cells were cultured for about 6 hours in PRMI 1640 medium containing 1% fetal bovine serum and 50 μmol/L 2-mercaptoethanol. Then, lipopolysaccharide (E. coli 0127:B8, Sigma Aldrich) was added to the culture plate at a final concentration of 1 μg/mL, and the cells were cultured for about 30 minutes. The cells were harvested and washed with phosphate buffered saline, and mixed with about 2-fold volume of cell lysis buffer (20 mmol/L Tris, 150 mmol/L sodium chloride, 1 mmol/L magnesium chloride, 0.1% NP-40, 1 mmol/L dithiothreitol, 0.1% Triton X-100, pH 7.4). The resultant mixture was placed on ice with occasional stirring for about 30 minutes, and was centrifuged (20000×g, 4° C., 8 minutes). The separated and gained supernatant was used as cell lysate. Protein concentration of the cell lysate was measured with BCA protein assay reagent (Thermo Fisher Scientific K.K.) in accordance with its manual.
Immobilization of 4-amino-N-[7-[(methylsulfonyl)amino]-4-oxo-6-phenoxy-4H-1-benzopyran-3-yl]butanamide hydrochloride on Dynabeads M-270 Carboxylic Acid (Life Technologies Corporation) was performed by a general method. […]

[1] = tested on: chronic constriction nerve injury model rat; assay: Chronic constriction nerve injury model rat, mechanical allodynia by von Frey test; assay type: in vivo
Protocol: This test was performed by referring to a method of Bennett et al. (Pain, 1988, vol. 33, pp. 87-107). Compound A was used as a test substance, and celecoxib, one of NSAIDs, was used as a reference substance. The compound A was administered at a dose of 30 mg/kg (Compound A group). The celecoxib was administered at a dose of 30 mg/kg (celecoxib group). To a control group, a 0.5% methyl cellulose aqueous solution used as a vehicle was administered. Under anesthetic with Somnopentyl (manufactured by Kyoritsu Seiyaku Corporation, about 52 mg/kg, intraperitoneal administration), nerve constriction operation was performed on the left sciatic nerves of Sprague-Dawley male rats (7 weeks old). Briefly, a left femoral region of each rat was dissected, the sciatic nerve was detached from tissues around, and the nerve was loosely constricted with a 4-0 silk suture (manufactured by Eticon Inc., surgical silk) for having narrow parts in four positions at intervals of about 1 mm. The muscular layer and the skin were respectively sutured, and the operation region was disinfected. The vehicle, the test substance or the reference substance was orally administered once a day continuously for 14 days from the 16th day after the operation. From the start of the administration, pain sense (mechanical allodynia) of the footpad of left hind paw was evaluated by von Frey test. […] The evaluation of the pain sense was expressed as an average of pain threshold values.

## CS(=O)(=O)Nc1cc2occ(NC=O)c(=O)c2cc1Oc1ccccc1 [Compound A, N-[7-[(methylsulfonyl)amino]-4-oxo-6-phenoxy-4H-1-benzopyran-3-yl]formamide]
MIF
  Binding of MIF to Compound A: specifically binds
[1]; 30 mg/kg orally once a day for 14 days, compared with control group
  Effect on the symptom of mechanical allodynia: inhibited the symptom of the mechanical allodynia
[1]; von Frey test, left hind paw, 30 mg/kg orally once a day for 14 days from the 16th day after operation
  Average of pain thresholds, 30th day after operation: 13.5 g
[1]; von Frey test, left hind paw, day before start of administration, 30 mg/kg groups
  Average of pain thresholds, 15th day after operation: 2.4 g
